Measured values taken from ChEMBL document CHEMBL4507324 (2021).

Legend:
Conditions in all cases: Compound concentration 100.0 nM
[1] = system: Phosphatidylinositol 4,5-bisphosphate 3-kinase catalytic subunit alpha isoform (Homo sapiens), P42336 [Q546K]
[2] = molecular target: Megakaryocyte-associated tyrosine-protein kinase (Homo sapiens) (UniProt P42679)
[3] = molecular target: Atypical kinase COQ8A, mitochondrial (Homo sapiens) (UniProt Q8NI60)
[4] = molecular target: Tyrosine-protein kinase TXK (Homo sapiens) (UniProt P42681)
[5] = molecular target: SRSF protein kinase 2 (Homo sapiens) (UniProt P78362)
[6] = molecular target: 3-phosphoinositide-dependent protein kinase 1 (Homo sapiens) (UniProt O15530)
[7] = molecular target: High affinity nerve growth factor receptor (Homo sapiens) (UniProt P04629)
[8] = molecular target: 1-phosphatidylinositol 3-phosphate 5-kinase (Homo sapiens) (UniProt Q9Y2I7)
[9] = molecular target: Dual specificity mitogen-activated protein kinase kinase 7 (Homo sapiens) (UniProt O14733)
Dual specificity mitogen-activated protein kinase kinase 7 (Homo sapiens), sequence (O14733 whole entry): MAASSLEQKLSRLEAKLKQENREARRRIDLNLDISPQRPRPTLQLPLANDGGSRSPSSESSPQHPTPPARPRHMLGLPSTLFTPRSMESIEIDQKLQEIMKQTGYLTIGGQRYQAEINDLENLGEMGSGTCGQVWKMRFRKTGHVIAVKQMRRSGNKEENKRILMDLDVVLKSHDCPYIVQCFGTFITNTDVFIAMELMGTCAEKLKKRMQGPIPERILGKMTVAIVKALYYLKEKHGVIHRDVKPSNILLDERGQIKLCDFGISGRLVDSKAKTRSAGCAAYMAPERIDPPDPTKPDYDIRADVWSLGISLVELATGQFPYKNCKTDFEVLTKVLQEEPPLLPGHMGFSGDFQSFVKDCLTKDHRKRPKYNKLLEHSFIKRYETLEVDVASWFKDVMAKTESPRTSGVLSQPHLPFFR

[10] = molecular target: Tyrosine-protein kinase Fyn (Homo sapiens) (UniProt P06241)
[11] = molecular target: Receptor-interacting serine/threonine-protein kinase 4 (Homo sapiens) (UniProt P57078)
Receptor-interacting serine/threonine-protein kinase 4 (Homo sapiens), sequence (P57078 whole entry): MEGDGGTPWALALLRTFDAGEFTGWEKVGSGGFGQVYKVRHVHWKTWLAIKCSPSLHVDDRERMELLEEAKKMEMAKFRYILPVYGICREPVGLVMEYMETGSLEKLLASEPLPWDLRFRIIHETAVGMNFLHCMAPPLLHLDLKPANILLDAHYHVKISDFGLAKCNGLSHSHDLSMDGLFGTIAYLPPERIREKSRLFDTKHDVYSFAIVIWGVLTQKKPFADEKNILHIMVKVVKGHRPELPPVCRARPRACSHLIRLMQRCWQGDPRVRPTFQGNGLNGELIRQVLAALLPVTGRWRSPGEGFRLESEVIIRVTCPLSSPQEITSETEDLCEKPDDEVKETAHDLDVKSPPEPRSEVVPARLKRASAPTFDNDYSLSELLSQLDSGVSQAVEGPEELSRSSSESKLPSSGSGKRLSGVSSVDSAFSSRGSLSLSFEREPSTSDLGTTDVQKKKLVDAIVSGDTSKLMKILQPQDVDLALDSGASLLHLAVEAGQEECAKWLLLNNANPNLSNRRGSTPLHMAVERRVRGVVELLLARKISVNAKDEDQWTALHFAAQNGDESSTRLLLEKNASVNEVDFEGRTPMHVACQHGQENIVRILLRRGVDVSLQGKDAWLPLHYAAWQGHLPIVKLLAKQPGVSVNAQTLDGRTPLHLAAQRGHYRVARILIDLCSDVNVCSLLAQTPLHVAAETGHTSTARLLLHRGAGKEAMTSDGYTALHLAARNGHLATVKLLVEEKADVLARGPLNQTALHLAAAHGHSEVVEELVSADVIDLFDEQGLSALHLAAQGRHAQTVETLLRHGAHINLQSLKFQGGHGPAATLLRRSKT

[12] = molecular target: Ephrin type-A receptor 5 (Homo sapiens) (UniProt P54756)
[13] = system: Mast/stem cell growth factor receptor Kit (Homo sapiens), P10721 [V559D]
[14] = system: Mast/stem cell growth factor receptor Kit (Homo sapiens), P10721 [D816V]
[15] = molecular target: Serine/threonine-protein kinase Nek5 (Homo sapiens) (UniProt Q6P3R8)
[16] = molecular target: Dual specificity protein kinase CLK4 (Homo sapiens) (UniProt Q9HAZ1)
[17] = molecular target: Serine/threonine-protein kinase Sgk3 (Homo sapiens) (UniProt Q96BR1)
Serine/threonine-protein kinase Sgk3 (Homo sapiens), sequence (Q96BR1 whole entry): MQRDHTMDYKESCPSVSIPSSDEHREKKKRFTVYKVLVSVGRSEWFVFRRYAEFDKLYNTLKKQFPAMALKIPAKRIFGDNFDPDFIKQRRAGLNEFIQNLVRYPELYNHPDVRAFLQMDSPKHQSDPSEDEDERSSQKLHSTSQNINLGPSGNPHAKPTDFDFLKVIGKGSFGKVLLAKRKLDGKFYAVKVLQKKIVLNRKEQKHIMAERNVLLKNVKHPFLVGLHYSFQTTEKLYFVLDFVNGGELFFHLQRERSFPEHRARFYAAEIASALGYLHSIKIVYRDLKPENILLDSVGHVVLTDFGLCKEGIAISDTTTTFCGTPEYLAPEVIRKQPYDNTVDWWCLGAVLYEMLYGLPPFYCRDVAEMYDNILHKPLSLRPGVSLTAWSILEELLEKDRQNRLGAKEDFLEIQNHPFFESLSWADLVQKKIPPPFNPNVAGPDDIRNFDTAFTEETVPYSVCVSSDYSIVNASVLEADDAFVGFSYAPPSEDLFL

[18] = molecular target: Mast/stem cell growth factor receptor Kit (Homo sapiens) (UniProt P10721)
[19] = system: Proto-oncogene tyrosine-protein kinase receptor Ret (Homo sapiens), P07949 [V804M]
[20] = molecular target: Phosphatidylinositol 5-phosphate 4-kinase type-2 beta (Homo sapiens) (UniProt P78356)
[21] = molecular target: Inhibitor of nuclear factor kappa-B kinase subunit beta (Homo sapiens) (UniProt O14920)
[22] = molecular target: Casein kinase II subunit alpha (Homo sapiens) (UniProt P68400)
[23] = molecular target: Cyclin-dependent kinase 15 (Homo sapiens) (UniProt Q96Q40)
[24] = molecular target: Receptor tyrosine-protein kinase erbB-4 (Homo sapiens) (UniProt Q15303)
[25] = molecular target: Ribosomal protein S6 kinase alpha-4 (Homo sapiens) (UniProt O75676)
Ribosomal protein S6 kinase alpha-4 (Homo sapiens), sequence (O75676 whole entry, looked up): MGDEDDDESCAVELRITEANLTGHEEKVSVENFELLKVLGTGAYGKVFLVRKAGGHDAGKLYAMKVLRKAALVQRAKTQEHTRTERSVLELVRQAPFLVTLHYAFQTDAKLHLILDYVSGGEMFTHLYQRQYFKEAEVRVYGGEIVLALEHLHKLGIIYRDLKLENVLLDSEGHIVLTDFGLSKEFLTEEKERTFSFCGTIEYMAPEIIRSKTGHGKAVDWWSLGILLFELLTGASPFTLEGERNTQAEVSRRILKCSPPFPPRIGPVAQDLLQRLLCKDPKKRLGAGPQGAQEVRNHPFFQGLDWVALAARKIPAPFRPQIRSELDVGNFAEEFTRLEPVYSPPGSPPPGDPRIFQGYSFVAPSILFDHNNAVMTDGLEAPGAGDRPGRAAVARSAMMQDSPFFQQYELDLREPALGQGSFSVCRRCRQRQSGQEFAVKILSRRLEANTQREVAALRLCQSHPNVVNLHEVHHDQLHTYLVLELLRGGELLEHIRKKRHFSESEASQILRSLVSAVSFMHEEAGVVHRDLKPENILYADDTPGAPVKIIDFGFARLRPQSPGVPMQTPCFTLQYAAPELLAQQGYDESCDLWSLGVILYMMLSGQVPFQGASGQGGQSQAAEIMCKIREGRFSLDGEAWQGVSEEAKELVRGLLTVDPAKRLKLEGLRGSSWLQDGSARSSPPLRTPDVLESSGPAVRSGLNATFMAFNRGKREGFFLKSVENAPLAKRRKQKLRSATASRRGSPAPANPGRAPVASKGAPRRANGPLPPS

[26] = molecular target: Myotonin-protein kinase (Homo sapiens) (UniProt Q09013)
[27] = system: Hepatocyte growth factor receptor (Homo sapiens), P08581 [Y1235D]
[28] = system: Receptor-type tyrosine-protein kinase FLT3 (Homo sapiens), P36888 [R834Q]
[29] = molecular target: Serine/threonine-protein kinase Nek4 (Homo sapiens) (UniProt P51957)
[30] = molecular target: Aurora kinase C (Homo sapiens) (UniProt Q9UQB9)
Aurora kinase C (Homo sapiens), sequence (Q9UQB9 whole entry): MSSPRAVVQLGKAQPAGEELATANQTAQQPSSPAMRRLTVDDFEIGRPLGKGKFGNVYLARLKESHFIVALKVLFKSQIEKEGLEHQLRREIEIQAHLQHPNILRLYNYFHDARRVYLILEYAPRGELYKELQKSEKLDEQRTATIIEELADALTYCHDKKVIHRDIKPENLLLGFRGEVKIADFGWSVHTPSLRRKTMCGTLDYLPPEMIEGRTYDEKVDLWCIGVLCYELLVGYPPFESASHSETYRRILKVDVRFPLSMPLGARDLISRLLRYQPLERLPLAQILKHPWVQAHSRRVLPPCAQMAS

[31] = molecular target: Serine/threonine-protein kinase STK11 (Homo sapiens) (UniProt Q15831)
[32] = system: Mast/stem cell growth factor receptor Kit (Homo sapiens), P10721 [D816H]
[33] = molecular target: Macrophage colony-stimulating factor 1 receptor (Homo sapiens) (UniProt P07333)
[34] = molecular target: Tyrosine-protein kinase Lyn (Homo sapiens) (UniProt P07948)
[35] = molecular target: Insulin-like growth factor 1 receptor (Homo sapiens) (UniProt P08069)
[36] = molecular target: Tyrosine-protein kinase Yes (Homo sapiens) (UniProt P07947)
[37] = molecular target: Phosphatidylinositol 4,5-bisphosphate 3-kinase catalytic subunit gamma isoform (Homo sapiens) (UniProt P48736)
[38] = molecular target: Cyclin-G-associated kinase (Homo sapiens) (UniProt O14976)
[39] = system: Phosphatidylinositol 4,5-bisphosphate 3-kinase catalytic subunit alpha isoform (Homo sapiens), P42336 [E545A]
Phosphatidylinositol 4,5-bisphosphate 3-kinase catalytic subunit alpha isoform (Homo sapiens), P42336 [E545A], sequence (P42336 whole entry E545A, canonical isoform): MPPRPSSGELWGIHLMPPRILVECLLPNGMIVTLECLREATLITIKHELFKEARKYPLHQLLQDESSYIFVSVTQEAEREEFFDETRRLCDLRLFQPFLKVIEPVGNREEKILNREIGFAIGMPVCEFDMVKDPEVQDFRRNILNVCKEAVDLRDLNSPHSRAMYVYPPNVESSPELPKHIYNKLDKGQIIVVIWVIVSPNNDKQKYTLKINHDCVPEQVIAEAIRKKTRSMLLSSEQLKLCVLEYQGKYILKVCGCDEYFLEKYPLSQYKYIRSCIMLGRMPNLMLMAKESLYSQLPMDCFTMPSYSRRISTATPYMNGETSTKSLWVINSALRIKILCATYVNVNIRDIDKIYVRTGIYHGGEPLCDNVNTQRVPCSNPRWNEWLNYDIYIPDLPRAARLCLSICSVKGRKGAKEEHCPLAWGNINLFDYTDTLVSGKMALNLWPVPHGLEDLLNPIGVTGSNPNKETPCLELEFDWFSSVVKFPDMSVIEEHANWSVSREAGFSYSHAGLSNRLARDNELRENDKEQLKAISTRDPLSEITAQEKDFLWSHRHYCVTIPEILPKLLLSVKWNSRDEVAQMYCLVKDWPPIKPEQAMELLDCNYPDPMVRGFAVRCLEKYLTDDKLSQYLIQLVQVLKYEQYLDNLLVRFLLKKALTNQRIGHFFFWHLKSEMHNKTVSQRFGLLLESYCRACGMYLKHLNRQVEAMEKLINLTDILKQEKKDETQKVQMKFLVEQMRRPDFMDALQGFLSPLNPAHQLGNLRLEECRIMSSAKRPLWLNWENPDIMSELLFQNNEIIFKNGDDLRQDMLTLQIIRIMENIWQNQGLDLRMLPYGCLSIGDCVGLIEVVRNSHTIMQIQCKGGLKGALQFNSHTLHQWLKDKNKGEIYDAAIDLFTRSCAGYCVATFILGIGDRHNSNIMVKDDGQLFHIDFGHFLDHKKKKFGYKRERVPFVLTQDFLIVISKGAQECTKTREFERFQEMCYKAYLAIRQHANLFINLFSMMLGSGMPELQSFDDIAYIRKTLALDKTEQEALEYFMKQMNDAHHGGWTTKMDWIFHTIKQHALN

[40] = molecular target: cAMP-dependent protein kinase catalytic subunit alpha (Homo sapiens) (UniProt P17612)
[41] = molecular target: Mitogen-activated protein kinase 7 (Homo sapiens) (UniProt Q13164)
Mitogen-activated protein kinase 7 (Homo sapiens), sequence (Q13164 2-816 limits assumed): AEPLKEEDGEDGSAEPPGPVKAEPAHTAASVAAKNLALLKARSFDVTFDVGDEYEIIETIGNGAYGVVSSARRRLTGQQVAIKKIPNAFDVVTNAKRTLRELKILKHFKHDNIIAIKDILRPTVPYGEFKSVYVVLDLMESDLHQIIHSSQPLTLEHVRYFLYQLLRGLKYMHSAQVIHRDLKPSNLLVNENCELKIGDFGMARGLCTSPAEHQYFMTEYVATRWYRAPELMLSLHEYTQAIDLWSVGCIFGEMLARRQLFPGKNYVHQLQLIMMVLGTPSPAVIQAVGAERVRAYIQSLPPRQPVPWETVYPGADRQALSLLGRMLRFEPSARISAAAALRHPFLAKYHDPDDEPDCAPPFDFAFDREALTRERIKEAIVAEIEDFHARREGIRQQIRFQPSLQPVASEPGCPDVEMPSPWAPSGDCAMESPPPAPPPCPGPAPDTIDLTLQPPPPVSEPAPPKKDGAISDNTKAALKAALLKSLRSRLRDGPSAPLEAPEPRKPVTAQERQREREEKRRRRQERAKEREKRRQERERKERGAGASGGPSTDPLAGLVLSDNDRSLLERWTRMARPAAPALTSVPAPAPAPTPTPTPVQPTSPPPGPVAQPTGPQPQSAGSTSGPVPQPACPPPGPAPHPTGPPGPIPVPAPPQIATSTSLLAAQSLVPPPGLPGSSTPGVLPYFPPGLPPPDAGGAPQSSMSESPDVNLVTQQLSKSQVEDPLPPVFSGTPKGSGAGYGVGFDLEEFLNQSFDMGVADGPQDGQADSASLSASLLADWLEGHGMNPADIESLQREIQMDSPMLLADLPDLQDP

[42] = system: Phosphatidylinositol 4,5-bisphosphate 3-kinase catalytic subunit alpha isoform (Homo sapiens), P42336 [M1043I]
[43] = molecular target: Epidermal growth factor receptor (Homo sapiens) (UniProt P00533)
[44] = molecular target: Serine/threonine-protein kinase Nek7 (Homo sapiens) (UniProt Q8TDX7)
Serine/threonine-protein kinase Nek7 (Homo sapiens), sequence (Q8TDX7 whole entry, looked up): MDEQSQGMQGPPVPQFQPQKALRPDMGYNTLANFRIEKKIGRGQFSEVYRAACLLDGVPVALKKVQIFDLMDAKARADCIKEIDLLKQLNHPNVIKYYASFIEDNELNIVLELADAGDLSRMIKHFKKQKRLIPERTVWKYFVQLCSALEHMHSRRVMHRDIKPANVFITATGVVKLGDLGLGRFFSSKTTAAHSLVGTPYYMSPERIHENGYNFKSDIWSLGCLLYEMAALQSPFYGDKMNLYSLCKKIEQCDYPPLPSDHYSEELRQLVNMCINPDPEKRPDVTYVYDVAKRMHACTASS

[45] = system: ALK tyrosine kinase receptor (Homo sapiens), Q9UM73 [C1156Y]

Work on `CS(=O)(=O)N1CCCC(NC(=O)[C@H](CCC2CCCCC2)NC(=O)c2ccc(CNc3ncnc4c3nnn4-c3ccccc3)cc2)C1` (stereo not given in full) [SR-301] yielded a residual activity [1] of 60%, a residual activity [2] of 100% and a residual activity [3] of 97%. For the same compound, the residual activity [4] was 77%, the residual activity [5] was 34% and the residual activity [6] was 99%. It also gave a residual activity [7] of 100%, a residual activity [8] of 61% and a residual activity [9] of 100%. It also gave a residual activity [10] of 56%, a residual activity [11] of 100% and a residual activity [12] of 96%. For the same compound, the residual activity [13] was 93%, the residual activity [14] was 100% and the residual activity [15] was 95%. The residual activity [16] was 85%, the residual activity [17] was 83% and the residual activity [18] was 89%. For the same compound, the residual activity [19] was 82%, the residual activity [20] was 100% and the residual activity [21] was 100%. The residual activity [22] was 94%, the residual activity [23] was 74% and the residual activity [24] was 61%. The residual activity [25] was 91%, the residual activity [26] was 100% and the residual activity [27] was 98%. It also gave a residual activity [28] of 94%, a residual activity [29] of 100% and a residual activity [30] of 78%. It also gave a residual activity [31] of 100%, a residual activity [32] of 68% and a residual activity [33] of 100%. It also gave a residual activity [34] of 96%, a residual activity [35] of 100% and a residual activity [36] of 98%. It also gave a residual activity [37] of 85%, a residual activity [38] of 95% and a residual activity [39] of 100%. The residual activity [40] was 100%, the residual activity [41] was 94% and the residual activity [42] was 87%. For the same compound, the residual activity [43] was 100%, the residual activity [44] was 88% and the residual activity [45] was 100%.

With `CS(=O)(=O)N1CCCC(NC(=O)[C@H](CCC2CCCCC2)NC(=O)c2ccc(CNC(=O)c3cnc4ccccn34)cc2)C1` (stereo not given in full) [SR-302] the residual activity [1] was 90%, the residual activity [2] was 100% and the residual activity [3] was 100%. It also gave a residual activity [4] of 91%, a residual activity [5] of 83% and a residual activity [6] of 100%. The residual activity [7] was 100%, the residual activity [8] was 100% and the residual activity [9] was 95%. The residual activity [10] was 80%, the residual activity [11] was 92% and the residual activity [12] was 100%. The residual activity [13] was 49%, the residual activity [14] was 100% and the residual activity [15] was 89%. For the same compound, the residual activity [16] was 98%, the residual activity [17] was 74% and the residual activity [18] was 63%. It also gave a residual activity [19] of 100%, a residual activity [20] of 100% and a residual activity [21] of 100%. The residual activity [22] was 100%, the residual activity [23] was 95% and the residual activity [24] was 95%. It also gave a residual activity [25] of 100%, a residual activity [26] of 98% and a residual activity [27] of 99%. The residual activity [28] was 100%, the residual activity [29] was 100% and the residual activity [30] was 98%. For the same compound, the residual activity [31] was 51%, the residual activity [32] was 44% and the residual activity [33] was 65%. For the same compound, the residual activity [34] was 100%, the residual activity [35] was 73% and the residual activity [36] was 88%. For the same compound, the residual activity [37] was 96%, the residual activity [38] was 96% and the residual activity [39] was 99%. The residual activity [40] was 100%, the residual activity [41] was 94% and the residual activity [42] was 37%. It also gave a residual activity [43] of 76%, a residual activity [44] of 100% and a residual activity [45] of 100%.
